Measured values as given in US10233188B2, “CDK2/4/6 inhibitors” (priority 2016, dated 2019).

Tests used:
CDK2/Cyclin E1 = CDK2/Cyclin E1 (Homo sapiens (Human), UniProt P24941); assay: biochemical; conditions: CDK2_Ki (nM), phosphorylated CDK2/Cyclin E1, 150 μM ATP, Morrison tight-binding fit
Description: The assay was initiated with the addition of ATP, following a fifteen minutes pre-incubation of enzyme and inhibitor at room temperature in the reaction mixture. The reaction was stopped after 45 minutes at room temperature by the addition of 50 μL of 80 mM EDTA, pH 7.5.

CDK6/Cyclin D1 = CDK6/Cyclin D1 (Homo sapiens (Human), UniProt Q00534); assay: biochemical; conditions: CDK6_Ki (nM), non-phosphorylated CDK6/Cyclin D1, 2 mM ATP, Morrison fit
Chain of CDK6/Cyclin D1 (Q00534 whole entry): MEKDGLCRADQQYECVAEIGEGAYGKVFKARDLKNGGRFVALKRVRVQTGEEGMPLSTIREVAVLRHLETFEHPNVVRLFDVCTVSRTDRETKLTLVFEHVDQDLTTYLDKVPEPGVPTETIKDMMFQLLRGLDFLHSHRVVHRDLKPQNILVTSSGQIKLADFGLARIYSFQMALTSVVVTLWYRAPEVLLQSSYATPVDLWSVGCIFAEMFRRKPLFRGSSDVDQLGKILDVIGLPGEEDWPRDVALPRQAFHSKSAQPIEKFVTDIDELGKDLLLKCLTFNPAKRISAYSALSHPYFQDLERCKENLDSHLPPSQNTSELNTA
Chain of CDK6/Cyclin D1 (P24385 whole entry partner): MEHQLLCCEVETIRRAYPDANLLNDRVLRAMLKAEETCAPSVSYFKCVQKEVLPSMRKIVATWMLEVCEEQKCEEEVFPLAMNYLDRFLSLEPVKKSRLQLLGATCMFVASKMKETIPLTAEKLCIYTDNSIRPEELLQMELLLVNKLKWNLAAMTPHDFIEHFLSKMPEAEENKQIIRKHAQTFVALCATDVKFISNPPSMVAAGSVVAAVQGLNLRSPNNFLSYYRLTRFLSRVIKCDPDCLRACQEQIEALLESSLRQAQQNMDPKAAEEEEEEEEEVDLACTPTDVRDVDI

Row | SMILES | Ki (CDK2/Cyclin E1) [nM] | Ki (CDK6/Cyclin D1) [nM]
1 | C[C@]1(O)CCC[C@@H]1n1c(=O)ccc2cnc(NC3CCN(S(=O)(=O)c4nccs4)CC3)nc21 (single isomer, unassigned) [Example 79, (+)-8-[(1R*,2R*)-2-hydroxy-2-methylcyclopentyl]-2-{[1-(1,3-thiazol-2-ylsulfonyl)piperidin-4-yl]amino}pyrido[2,3-d]pyrimidin-7(8H)-one] | 7.32 | 9.59
2 | C[C@]1(O)CCC[C@@H]1n1c(=O)c(Cl)cc2cnc(NC3CCN(S(N)(=O)=O)CC3)nc21 (single isomer, unassigned) [Example 129, (+)-4-({6-chloro-8-[(1R*,2R*)-2-hydroxy-2-methylcyclopentyl]-7-oxo-7,8-dihydropyrido[2,3-d]pyrimidin-2-yl}amino)piperidine-1-sulfonamide] | 1.47 | 5.73
3 | C[C@]1(O)CCC[C@@H]1n1c(=O)ccc2cnc(NC3CCN(S(=O)(=O)c4nncs4)CC3)nc21 (single isomer, unassigned) [Example 81, (+)-8-[(1R*,2R*)-2-hydroxy-2-methylcyclopentyl]-2-{[1-(1,3,4-thiadiazol-2-ylsulfonyl)piperidin-4-yl]amino}pyrido[2,3-d]pyrimidin-7(8H)-one] | 7.03 | 6.24
4 | C[C@@]1(O)CCC[C@H]1n1c(=O)ccc2cnc(NC3CCN(S(=O)(=O)CS(C)(=O)=O)CC3)nc21 [Example 190, 8-[(1R,2R)-2-hydroxy-2-methylcyclopentyl]-2-[(1-{[(methylsulfonyl)methyl]sulfonyl}piperidin-4-yl)amino]pyrido[2,3-d] pyrimidin-7(8H)-one] | 0.51 | 184
5 | C[C@@]1(O)CCC[C@H]1n1c(=O)c(C(F)F)cc2cnc(NC3CCN(S(N)(=O)=O)CC3)nc21 (single isomer, unassigned) [Example 187, (−)-4-({6-(difluoromethyl)-8-[(1R*,2R*)-2-hydroxy-2-methylcyclopentyl]-7-oxo-7,8-dihydropyrido[2,3-d]pyrimidin-2-yl}amino)piperidine-1-sulfonamide] | 0.08 | 0.29
6 | C[C@@H]1[C@@H](O)CC[C@@H]1n1c(=O)ccc2cnc(NC3CCN(S(C)(=O)=O)CC3)nc21 (single isomer, unassigned) [Example 209, (+)-8-[(1R*,2R*,3R*)-3-hydroxy-2-methylcyclopentyl]-2-{[1-(methylsulfonyl)piperidin-4-yl]amino}pyrido[2,3-d]pyrimidin-7(8H)-one] | 0.5 | 0.75
7 | Cn1cc(S(=O)(=O)N2CCC(Nc3ncc4ccc(=O)n([C@H]5CCC[C@]5(C)O)c4n3)CC2)cn1 (single isomer, unassigned) [Example 83, (+)-8-[(1R*,2R*)-2-hydroxy-2-methylcyclopentyl]-2-({1-[(1-methyl-1H-pyrazol-4-yl)sulfonyl]piperidin-4-yl}amino)pyrido[2,3-d]pyrimidin-7(8H)-one] | 1.98 | 9.77
8 | C[C@@]1(O)CCC[C@H]1n1c(=O)ccc2cnc(NC3CCN(S(=O)(=O)CC(F)(F)F)CC3)nc21 (single isomer, unassigned) [Example 86, (−)-8-[(1R*,2R*)-2-hydroxy-2-methylcyclopentyl]-2-({1-[(2,2,2-trifluoroethyl)sulfonyl]piperidin-4-yl}amino)pyrido[2,3-d]pyrimidin-7(8H)-one] | 0.45 | 1.6
9 | CNS(=O)(=O)N1CCC(Nc2ncc3ccc(=O)n([C@@H]4CCC[C@@]4(C)O)c3n2)CC1 (single isomer, unassigned) [Example 56, (−)-4-({8-[(1R*,2R*)-2-hydroxy-2-methylcyclopentyl]-7-oxo-7,8-dihydropyrido[2,3-d]pyrimidin-2-yl}amino)-N-methylpiperidine-1-sulfonamide] | 0.28 | 1.77
10 | CS(=O)(=O)N1CC[C@H](Nc2ncc3cc(Cl)c(=O)n(C4CCCC4)c3n2)[C@@H](F)C1 (single isomer, unassigned) [Example 154, (−)-6-chloro-8-cyclopentyl-2-{[(3S*,4S*)-3-fluoro-1-(methylsulfonyl)piperidin-4-yl]amino}pyrido[2,3-d]pyrimidin-7(8H)-one] | – | 0.27
11 | CS(=O)(=O)N1CC[C@@H](Nc2ncc3cc(Cl)c(=O)n(C4CCCC4)c3n2)[C@@H](F)C1 (single isomer, unassigned) [Example 153, (+)-6-chloro-8-cyclopentyl-2-{[(3R*,4S*)-3-fluoro-1-(methylsulfonyl)piperidin-4-yl]amino}pyrido[2,3-d]pyrimidin-7(8H)-one] | – | 2.23
12 | CS(=O)(=O)N1CC[C@H](Nc2ncc3cc(Cl)c(=O)n(C4CCCC4)c3n2)[C@H](F)C1 (single isomer, unassigned) [Example 152, (−)-6-chloro-8-cyclopentyl-2-{[(3R*,4S*)-3-fluoro-1-(methylsulfonyl)piperidin-4-yl]amino}pyrido[2,3-d]pyrimidin-7(8H)-one] | – | 0.43
13 | CS(=O)(=O)N1CC[C@@H](Nc2ncc3cc(N)c(=O)n(C4CCCC4)c3n2)[C@@H](F)C1 (single isomer, unassigned; isomer a) [Example 151, 6-amino-8-cyclopentyl-2-{[(3R*,4S*)-3-fluoro-1-(methylsulfonyl)piperidin-4-yl]amino}pyrido[2,3-d]pyrimidin-7(8H)-one-Isomer A] | – | 7.29
14 | CS(=O)(=O)N1CC[C@@H](Nc2ncc3cc(CC(N)=O)c(=O)n(C4CCCC4)c3n2)[C@H](F)C1 (single isomer, unassigned) [Example 161, (+)-2-(8-cyclopentyl-2-{[(3S*,4S*)-3-fluoro-1-(methylsulfonyl)piperidin-4-yl]amino}-7-oxo-7,8-dihydropyrido[2,3-d]pyrimidin-6-yl)acetamide] | 135 | –
15 | C[C@@H]1[C@H](O)CC[C@@H]1n1c(=O)ccc2cnc(NC3CCN(S(C)(=O)=O)CC3)nc21 (single isomer, unassigned) [Example 207, (+)-8-[(1R*,2R*,3S*)-3-hydroxy-2-methylcyclopentyl]-2-{[1-(methylsulfonyl)piperidin-4-yl]amino}pyrido[2,3-d]pyrimidin-7(8H)-one] | 5.05 | –
16 | C[C@@]1(O)CCC[C@H]1n1c(=O)ccc2cnc(NC3CCN(S(=O)(=O)C4CCS(=O)(=O)C4)CC3)nc21 (single isomer, unassigned; isomer b) [Example 71] | 0.25 | –
17 | CS(=O)(=O)N1CC[C@@H](Nc2ncc3cc(Cl)c(=O)n(C4CCCC4)c3n2)[C@H](F)C1 (single isomer, unassigned) [Example 155, (+)-6-chloro-8-cyclopentyl-2-{[(3S*,4S*)-3-fluoro-1-(methylsulfonyl)piperidin-4-yl]amino}pyrido[2,3-d]pyrimidin-7(8H)-one] | – | 2.26
18 | CNS(=O)(=O)N1CCC(Nc2ncc3ccc(=O)n([C@H]4CCC[C@H]4C)c3n2)CC1 [Example 45, N-methyl-4-({8-[(1S,2R)-2-methylcyclopentyl]-7-oxo-7,8-dihydropyrido[2,3-d]pyrimidin-2-yl}amino)piperidine-1-sulfonamide] | 0.93 | –

More lines, now with the values ahead:

Row | Ki (CDK2/Cyclin E1) [nM] | Ki (CDK6/Cyclin D1) [nM] | SMILES
19 | 2.92 | 1.09 | Cc1cc2cnc(NC3CCN(S(C)(=O)=O)CC3)nc2n([C@@H]2C[C@H](O)C[C@@H]2C)c1=O (single isomer, unassigned) [Example 199, (−)-8-[(1R*,2S*,4R*)-4-hydroxy-2-methylcyclopentyl]-6-methyl-2-{[1-(methylsulfonyl)piperidin-4-yl]amino}pyrido[2,3-d]pyrimidin-7(8H)-one]
20 | 0.27 | 0.42 | C[C@H]1CCC[C@H]1n1c(=O)c(Cl)cc2cnc(NC3CCN(S(C)(=O)=O)CC3)nc21 [Example 38, 6-chloro-8-[(1R,2S)-2-methylcyclopentyl]-2-{[1-(methylsulfonyl)piperidin-4-yl]amino}pyrido[2,3-d]pyrimidin-7(8H)-one]
21 | 24.9 | 12 | Cc1cc2cnc(NC3CCN(S(C)(=O)=O)CC3)nc2n(C2CCCCC(O)C2)c1=O (single isomer, unassigned; isomer b) [Example 224, 8-(3-hydroxycycloheptyl)-6-methyl-2-{[1-(methylsulfonyl)piperidin-4-yl]amino}pyrido[2,3-d]pyrimidin-7(8H)-one-Isomer B]
22 | 1.12 | – | CN(C)S(=O)(=O)N1CCC(Nc2ncc3ccc(=O)n(C4CCCC4)c3n2)CC1 [Example 12, 4-[(8-cyclopentyl-7-oxo-7,8-dihydropyrido[2,3-d]pyrimidin-2-yl)amino]-N,N-dimethylpiperidine-1-sulfonamide]
23 | 63.2 | – | CC1(C)CC(Nc2ncc3cc(CCO)c(=O)n(C4CCCC4)c3n2)CCN1S(C)(=O)=O (single isomer, unassigned; (-)) [Example 163, (−)-8-cyclopentyl-2-{[2,2-dimethyl-1-(methylsulfonyl)piperidin-4-yl]amino}-6-(2-hydroxyethyl)pyrido[2,3-d]pyrimidin-7(8H)-one]
24 | 1.59 | – | Cc1cc2cnc(NC3CCN(S(=O)(=O)N(C)C)CC3)nc2n(C2CCCC2)c1=O [Example 24, 4-[(8-cyclopentyl-6-methyl-7-oxo-7,8-dihydropyrido[2,3-d]pyrimidin-2-yl)amino]-N,N-dimethylpiperidine-1-sulfonamide]
25 | 3.85 | – | CN(C)S(=O)(=O)N1CCC(Nc2ncc3cc(CCO)c(=O)n(C4CCCC4)c3n2)CC1 [Example 27, 4-{[8-cyclopentyl-6-(2-hydroxyethyl)-7-oxo-7,8-dihydropyrido[2,3-d]pyrimidin-2-yl]amino}-N,N-dimethylpiperidine-1-sulfonamide]
26 | 3.46 | – | Cc1cc2cnc(NC3CCN(S(=O)(=O)NC[C@H]4CCCO4)CC3)nc2n([C@H]2CCC[C@]2(C)O)c1=O (single isomer, unassigned) [Example 103, (+)-4-({8-[(1R*,2R*)-2-hydroxy-2-methylcyclopentyl]-6-methyl-7-oxo-7,8-dihydropyrido[2,3-d]pyrimidin-2-yl}amino)-N-[(2R)-tetrahydrofuran-2-ylmethyl]piperidine-1-sulfonamide]
